This passage reports logD results from the SangsterLogP compilation.

The series in a line: method code SF-AS, from DOI: 10.1016/0014-5793(90)81139-f, PMID: 2387393. Particulars: pH 2.0.

As for `COc1cc(O)ccc1O`, the log distribution coefficient (logD) (commonly the decadic logarithm of the distribution of all forms, ionised or not, between an organic phase and buffer at a given pH) stood at 0.47. The result for `COC1=C(OC)C(=O)C(C)=C(C)C1=O` reads 1.26; that for `COc1c(O)c(C)c(C)c(O)c1OC`, 1.6; that for `COC1=CC(=O)C=CC1=O`, 0.27.

Compound `COC1=CC(=O)C=C(OC)C1=O` displayed a logD of -0.05.

As for `Cc1cc(O)cc(Br)c1O`, the logD was 1.38.

`COc1c(O)c(OC)c(OC)c(O)c1OC` gave a logD of 0.39. The same measure for `CC1=CC(=O)C=C(Br)C1=O`: 1.21; for `COc1c(O)cc(C)c(O)c1OC`: 1.02; for `Cc1cc(O)c(C)c(C)c1O`: 1.69. The result for `COc1cc(O)cc(OC)c1O` reads 0.17; that for `CC1=CC(=O)C=CC1=O`, 0.67.
